Reference: patent publication EP0934940A1, “CYTOKINE PRODUCTION INHIBITORS, TRIAZEPINE COMPOUNDS, AND INTERMEDIATES THEREOF” (Japan Tobacco Inc., priority 1996, dated 1997)
Read-outs that look alike come from different tables or passages of the source.

Legend:
IL-6 [1] = test: Inhibitory activity on IL-6 production from LPS-stimulated human PBMC (ELISA); format: cell-based; conditions: 24 h
Protocol: (§1) Inhibitory activity on cytokine production from human PBMC (peripheral blood mononuclear cell)
(§2) PBMC fractions were isolated from human blood using a mono-poly resolving medium. The cells (PBMC) were cultured in 5% FCS (fetal calf serum)/RPMI1640 medium. Thereafter, the test compound was added to the final concentration of 0.001-10 µM, and LPS (lipopolysaccharide) was added to the final concentration of 10 µg/ml. After incubatioin for 24 hours, the supernatant was separated and freeze stocked at -80°C.
(§3) On the day of experiment, the supernatant was thawed and the production amount of cytokine was measured by ELISA. IL-6 was assayed using [(h)IL-6] human, ELISA system (Amersham); TNF-α was assayed using [(h)TNF-α] human, ELISA system (Amersham); GM-CSF was assayed using human GM-CSF immunoassay (R&D systems); and IL-8 was assayed using human IL-8 immunoassay (R&D systems). The determination method followed the method of each kit. The results are expressed in IC50.

TNF-α = test: Inhibitory activity on TNF-α production from LPS-stimulated human PBMC (ELISA); format: cell-based; conditions: Homo sapiens, PBMC, 24 h
Protocol: as §1, §2, §3

IL-6 [2] = test: Inhibitory activity on in vivo IL-6 production by LPS stimulation; conditions: male ICR mice, LPS stimulation i.v., test compound 10 mg/kg p.o. at the same time, blood two hours later, relative to 0.5% CMC-Na group; for inhibition in vivo at 10 mg/kg: Mus musculus, po, 2 h, read-out: Inhibtion (%) of plasma IL-6 production (10 mg/kg, p.o.)
Protocol: Inhibitory activity on in vivo IL-6 production by LPS stimulation
LFS (0.3 mg/kg) was intravenously administered to male ICR mice (6-week-old) fasted for 24 hours. At the same time, the test compound suspended in 0.5% CMC-Na ( carboxymethylcellulose sodium) was orally administered at the dose of 10 mg/kg.
Two hours later, blood was taken from eyegrounds. The blood was centrifuged, and the plasma fraction was diluted and quantitatively assayed for IL-6 in blood by ELISA (Endogen EM-IL6). The inhibitory percentage of the group administered with the test compound was expressed relative to the amount of IL-6 in blood of the cup administered with 0.5% CMC-Na.

[3] = human PBMC, LPS 10 µg/ml, incubation 24 hours, supernatant ELISA, read-out: IL-6 IC50
[4] = human PBMC, LPS 10 µg/ml, incubation 24 hours, supernatant ELISA, read-out: TNF-α IC50
[5] = read-out: IL-6 IC50 (µM), human PBMC, LPS 10 µg/ml, incubation 24 hours, supernatant ELISA
[6] = read-out: TNF-α IC50 (µM), human PBMC, LPS 10 µg/ml, incubation 24 hours, supernatant ELISA

SMILES | IC50 (IL-6 [1]; [5]) [µM] | IC50 (TNF-α; [6]) [µM] | other results
Cc1sc2c(c1C)C(c1ccc(Cl)cc1)=NN(Cc1cc[n+]([O-])cc1)c1nnc(C)n1-2 [Example 3, 4-[4-(4-Chlorophenyl)-2,3,9-trimethyl-6H-1-thia-5,6,7,8,9a-pentaazacyclopent[e]azulen-6-ylmethyl]-pyridine-1-oxide] | – | – | IC50 (IL-6 [1]; [3]): 0.2 µM; IC50 (TNF-α; [4]): 0.05 µM
CCc1cc2c(s1)-n1c(C)nnc1N(Cc1cc[n+]([O-])cc1)N=C2c1ccc(Cl)cc1 [Example 4, 4-[4-(4-Chlorophenyl)-2-ethyl-9-methyl-6H-1-thia-5,6,7,8,9a-pentaazacyclopent[e]azulen-6-ylmethyl]-pyridine-1-oxide] | – | – | IC50 (IL-6 [1]; [3]): 2 µM
COC(=O)c1ccc(C2=NN(Cc3ccc(C#N)cc3)c3nnc(C)n3-c3ccccc32)cc1 [Example 7, Methyl 4-[4-(4-cyanobenzyl)-1-methyl-4H-2,3,4,5,10b-pentaazabenz[e]azulen-6-yl]benzoate] | – | – | IC50 (IL-6 [1]; [3]): 0.23 µM; IC50 (TNF-α; [4]): 0.5 µM
Cc1nnc2n1-c1ccccc1C(c1ccc(NC(=O)OC(C)(C)C)cc1)=NN2Cc1ccc(C#N)cc1 [Example 13, tert-Butyl 4-[4-(4-cyanobenzyl)-1-methyl-4H-2,3,4,5,10b-pentaazabenz[e]azulen-6-yl]phenylcarbamate] | – | – | IC50 (IL-6 [1]; [3]): 0.02 µM; IC50 (TNF-α; [4]): < 0.01 µM
Cc1nnc2n1-c1ccccc1C(c1ccc(NC(=O)OC(C)(C)C)cc1)=NN2Cc1ccc([N+](=O)[O-])cc1 [Example 14, tert-Butyl 4-[1 methyl-4-(4-nitrobenzyl)-4H-2,3,4,5,10b-pentaazabenz[e]azulen-6-yl]phenylcarbamate] | – | – | IC50 (IL-6 [1]; [3]): 0.02 µM; IC50 (TNF-α; [4]): < 0.01 µM
Cc1cc2c(s1)-n1c(C)nnc1N(Cc1ccc(-c3nnn(C)n3)cc1)N=C2c1ccccc1 [Example 17, 2,9-dimethyl-4-phenyl-6-[4-(2-methyl-2H-tetrazol-5-yl)benzyl]-6H-5,6,7,8,9a-pentaazathieno[2,3-e]azulene] | – | – | IC50 (TNF-α; [4]): 0.12 µM
Cc1ccc(CN2N=C(c3ccc(Cl)cc3)c3ccccc3-n3c(C)nnc32)cc1 [Synthetic Example 54, 6-(4-Chlorophenyl)-1-methyl-4-(4-methylbenzyl)-4H-2,3,4,5,10b-pentaazabenz[e]azulene] | – | – | inhibition in vivo at 10 mg/kg (IL-6 [2]): 56%
Cc1nnc2n1-c1ccccc1C(c1ccc(Cl)cc1)=NN2Cc1ccncc1 [Synthetic Example 86, 6-(4-Chlorophenyl)-1-methyl-4-(pyridin-4-ylmethyl)-4H-2,3,4,5,10b-pentaazabenz[e]azulene] | – | – | inhibition in vivo at 10 mg/kg (IL-6 [2]): 89%
Cc1nnc2n1-c1ccccc1C(c1ccccc1)=NN2Cc1ccncc1 [Synthetic Example 95, 1-Methyl-6-phenyl-4-(pyridin-4-ylmethyl)-4H-2,3,4,5,10b-pentaazabenz[e]azulene] | – | – | inhibition in vivo at 10 mg/kg (IL-6 [2]): 78%
Cc1ccc2c(c1)-n1c(C)nnc1N(Cc1ccncc1)N=C2c1ccccc1 [Synthetic Example 97, 1,9-Dimethyl-6-phenyl-4-(pyridin-4-ylmethyl)-4H-2,3,4,5,10b-pentaazabenz[e]azulene] | – | – | inhibition in vivo at 10 mg/kg (IL-6 [2]): 98%
Cc1nnc2n1-c1ccc([N+](=O)[O-])cc1C(c1ccccc1)=NN2Cc1ccncc1 [Synthetic Example 102, 1-Methyl-8-nitro-6-phenyl-4-(pyridin-4-ymethyl)-4H-2,3,4,5,10b-pentaazabenz[e]azulene] | – | – | Inhibtion (%) of plasma IL-6 production (10 mg/kg, p.o.) (IL-6 [2]): 78%
Cc1ccc(C2=NN(Cc3ccncc3)c3nnc(C)n3-c3ccccc32)cc1 [Synthetic Example 103, 1-Methyl-6-(4-methylphenyl)-4-(pyridin-4-ylmethyl)-4H-2,3,4,5,10b-pentaazabenz[e]azulene] | – | – | inhibition in vivo at 10 mg/kg (IL-6 [2]): 75%
Cc1ccc2c(c1)-n1c(C)nnc1N(Cc1ccc(C#N)cc1)N=C2c1ccc(Cl)cc1 [Synthetic Example 108, 6-(4-Chlorophenyl)-4-(4-cyanbenzyl)-1,9-dimethyl-4H-2,3,4,5,10b-pentaazabenz[e]azulene] | – | – | Inhibtion (%) of plasma IL-6 production (10 mg/kg, p.o.) (IL-6 [2]): 70%
Cc1nnc2n1-c1ccccc1C(c1ccc(Br)cc1)=NN2Cc1ccc(Br)cc1 [Synthetic Example 109, 4-(4-Bromobenzyl)-6-(4-bromophenyl)-1-methyl-4H-2,3,4,5,10b-pentaaabenz[e]azulene] | – | – | Inhibtion (%) of plasma IL-6 production (10 mg/kg, p.o.) (IL-6 [2]): 51%
Cc1nnc2n1-c1ccccc1C(c1ccccc1)=NN2Cc1ccc(C#N)cc1 [Synthetic Example 111, 4-(4-Cyanobenzyl)-1-methyl-6-phenyl-4H-2,3,4,5,10b-pentaazabenz[e]azulene] | – | – | inhibition in vivo at 10 mg/kg (IL-6 [2]): 62%
Cc1sc2c(c1C)C(c1ccccc1Cl)=NN(Cc1ccncc1)c1nnc(C)n1-2 [compound 20] | 0.8 | 0.06 | –
Cc1nnc2n1-c1ccccc1C(c1ccc(Cl)cc1)=NN2Cc1ccc(C#N)cc1 [compound 39] | < 0.01 | < 0.01 | –
Cc1nnc2n1-c1ccccc1C(c1ccc(Cl)cc1)=NN2Cc1ccncc1 [compound 86] | 0.08 | 0.01 | –
Cc1nnc2n1-c1ccc([N+](=O)[O-])cc1C(c1ccccc1)=NN2Cc1ccncc1 [compound 102] | 1.15 | 0.05 | –
Cc1nnc2n1-c1ccccc1C(c1ccc(Br)cc1)=NN2Cc1ccc(Br)cc1 [compound 109] | < 0.01 | 0.07 | –
Cc1nnc2n1-c1ccccc1C(c1ccccc1)=NN2Cc1ccc(C#N)cc1 [compound 111] | 0.4 | 0.07 | –
Cc1sc2c(c1C)C(c1ccc(Cl)cc1)=NN(Cc1ccc(C#N)cc1)c1nnc(C)n1-2 [compound 115] | 0.06 | 0.01 | –
CCc1cc2c(s1)-n1c(C)nnc1N(Cc1ccc(C#N)cc1)N=C2c1ccc(Cl)cc1 [compound 119] | < 0.01 | < 0.01 | –
Cc1cc2c(s1)-n1c(C)nnc1N(Cc1ccncc1)N=C2c1ccccc1 [compound 121] | 0.04 | < 0.01 | –
Cc1cc2c(s1)-n1c(C)nnc1N(Cc1ccc(C#N)cc1)N=C2c1ccccc1 [compound 122] | < 0.01 | < 0.01 | –
Cc1sc2c(c1C)C(c1ccccc1)=NN(Cc1ccncc1)c1nnc(C)n1-2 [compound 125] | 0.02 | < 0.01 | –
Cc1nnc2n1-c1ccccc1C(c1ccc(Cl)cc1)=NC2CC(=O)Nc1ccccc1 (stereo not shown) [compound 195] | 3.4 | 0.6 | –
Cc1nnc2n1-c1ccccc1C(c1ccc(Cl)cc1)=NC21NC(=O)N(c2ccccc2)C1=O (stereo not shown) [compound 197] | > 10 | 0.3 | –
CCOC(=O)C1(NC(=O)Nc2cc(OC)ccc2OC)N=C(c2ccc(Cl)cc2)c2ccccc2-n2c(C)nnc21 (stereo not shown) [compound 199] | 1.6 | 0.01 | –
Cc1nnc2n1-c1ccccc1C(c1ccc(Cl)cc1)=NC2NC(=O)c1cc2ccccc2[nH]1 (stereo not shown) [compound 205] | 3.9 | 0.01 | –

Now from value to molecule, other results behind:

IC50 (IL-6 [1]; [5]) [µM] | IC50 (TNF-α; [6]) [µM] | SMILES | other results
0.008 | < 0.01 | COc1ccc(CN2N=C(c3ccc(OC)cc3)c3c(sc(C)c3C)-n3c(C)nnc32)cc1 [compound 18] | –
0.01 | 0.02 | Cc1ccc(CN2N=C(c3ccc(Cl)cc3)c3ccccc3-n3c(C)nnc32)cc1 [compound 54] | –
0.34 | 0.03 | Cc1nnc2n1-c1ccccc1C(c1ccccc1)=NN2Cc1ccncc1 [compound 95] | –
0.22 | 0.007 | Cc1ccc2c(c1)-n1c(C)nnc1N(Cc1ccncc1)N=C2c1ccccc1 [compound 97] | –
0.11 | 0.001 | Cc1ccc(C2=NN(Cc3ccncc3)c3nnc(C)n3-c3ccccc32)cc1 [compound 103] | –
< 0.01 | < 0.01 | Cc1ccc2c(c1)-n1c(C)nnc1N(Cc1ccc(C#N)cc1)N=C2c1ccc(Cl)cc1 [compound 108] | –
0.01 | < 0.01 | Cc1sc2c(c1C)C(c1ccc(Cl)cc1)=NN(Cc1ccncc1)c1nnc(C)n1-2 [compound 114] | –
0.08 | < 0.01 | CCc1cc2c(s1)-n1c(C)nnc1N(Cc1ccncc1)N=C2c1ccccc1 [compound 127] | –
0.06 | 0.014 | COc1ccc(C2=NN(Cc3ccncc3)c3nnc(C)n3-c3sc(C)c(C)c32)cc1 [compound 129] | –
2.5 | 0.09 | COc1ccc(OC)c(N2C(=O)NC3(N=C(c4ccc(Cl)cc4)c4ccccc4-n4c(C)nnc43)C2=O)c1 (stereo not shown) [compound 196] | –
5.7 | 0.2 | Cc1nnc2n1-c1ccccc1C(c1ccc(Cl)cc1)=NC2NC(=O)NC1CCCCC1 (stereo not shown) [compound 203] | –
> 10 | 0.4 | COc1ccc(OC)c(NC(=O)NC2N=C(c3ccc(Cl)cc3)c3ccccc3-n3c(C)nnc32)c1 (stereo not shown) [compound 204] | –
